Measurements taken from patent US12570659B2, “Bicyclic heteroaryl compounds useful as IRAK4 inhibitors” (BRISTOL-MYERS SQUIBB COMPANY, priority 2019, dated 2026).

What was measured:
IRAK4 = IRAK4 (Homo sapiens (Human), UniProt Q9NWZ3); experiment: IRAK4 Inhibition Assay; format: biochemical; conditions: ATP 500 μM; IRAK4 0.6 nM; 60 min room temperature
In short: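 Phosphorylated and unphosphorylated fluorescent substrate were resolved by microfluidic electrophoresis after termination with 35 mM EDTA. The room-temperature kinase reaction lasted 60 min after IRAK4, substrates and test compound were combined; vehicle-only defined 0% and no-enzyme 100% inhibition.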

[1] = test system: TLR2 agonist-stimulated IL-6 in human whole blood; experiment: IRAK4 Whole Blood Assay; format: cell-based; conditions: lipoteichoic acid 10 μg/mL, 5 hours, IL-6 levels
Experimental: Human whole blood containing the anti-coagulant ACD-A was plated in 384-well plate (25 μL/well) and incubated with compounds for 60 minutes at 37° C. in a 5% CO2 incubator. The blood was stimulated with a TLR2 agonist, 10 μg/mL final concentration of lipoteichoic acid (Invivogen, San Diego, CA) in 25 μL RPMI (Gibco) for 5 hours in a 5% CO2 incubator. At the end of the incubation, plates were centrifuged at 2300 rpm for 5 minutes. Supernatants were harvested and analyzed for IL-6 levels by Flow Cytometry beads assay (BD Biosciences, San Jose, CA).

JAK3 kinase = JAK3 kinase (Homo sapiens (Human), UniProt P52333); experiment: JAK3 Homogeneous Time Resolved Fluorescence (HTRF) Assay; format: binding; conditions: for IC50: competition binding with fluorescein-labeled ATP competitive probe; for Ratio of JAK3 IC50 to IRAK4 IC50: selectivity for IRAK4 over JAK3
In short: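 IC50 reflects displacement of a fluorescein-labeled ATP-site probe (at its Kd) from 1 nM tagged JAK3, detected via 0.2 nM Tb anti-His or anti-GST antibody. One-hour incubation; 495 and 520 nm emission ratios, background-subtracted, normalized to maximum signal; 11-point percent inhibition, 4-parameter logistic.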

Chain of IRAK4 (Q9NWZ3 whole entry, species assumed): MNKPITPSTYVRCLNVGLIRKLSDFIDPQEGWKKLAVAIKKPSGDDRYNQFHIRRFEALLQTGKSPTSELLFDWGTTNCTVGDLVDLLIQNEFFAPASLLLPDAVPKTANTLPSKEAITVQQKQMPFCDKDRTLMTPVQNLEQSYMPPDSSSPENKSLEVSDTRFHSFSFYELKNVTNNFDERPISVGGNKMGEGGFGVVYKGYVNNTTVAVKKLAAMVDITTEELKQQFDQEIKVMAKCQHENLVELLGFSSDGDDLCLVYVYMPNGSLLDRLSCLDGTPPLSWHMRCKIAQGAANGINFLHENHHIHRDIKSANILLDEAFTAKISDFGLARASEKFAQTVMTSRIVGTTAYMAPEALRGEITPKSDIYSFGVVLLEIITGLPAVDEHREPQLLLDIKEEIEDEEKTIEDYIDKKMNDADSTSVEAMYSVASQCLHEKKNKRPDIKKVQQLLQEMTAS
Chain of JAK3 kinase (P52333 whole entry): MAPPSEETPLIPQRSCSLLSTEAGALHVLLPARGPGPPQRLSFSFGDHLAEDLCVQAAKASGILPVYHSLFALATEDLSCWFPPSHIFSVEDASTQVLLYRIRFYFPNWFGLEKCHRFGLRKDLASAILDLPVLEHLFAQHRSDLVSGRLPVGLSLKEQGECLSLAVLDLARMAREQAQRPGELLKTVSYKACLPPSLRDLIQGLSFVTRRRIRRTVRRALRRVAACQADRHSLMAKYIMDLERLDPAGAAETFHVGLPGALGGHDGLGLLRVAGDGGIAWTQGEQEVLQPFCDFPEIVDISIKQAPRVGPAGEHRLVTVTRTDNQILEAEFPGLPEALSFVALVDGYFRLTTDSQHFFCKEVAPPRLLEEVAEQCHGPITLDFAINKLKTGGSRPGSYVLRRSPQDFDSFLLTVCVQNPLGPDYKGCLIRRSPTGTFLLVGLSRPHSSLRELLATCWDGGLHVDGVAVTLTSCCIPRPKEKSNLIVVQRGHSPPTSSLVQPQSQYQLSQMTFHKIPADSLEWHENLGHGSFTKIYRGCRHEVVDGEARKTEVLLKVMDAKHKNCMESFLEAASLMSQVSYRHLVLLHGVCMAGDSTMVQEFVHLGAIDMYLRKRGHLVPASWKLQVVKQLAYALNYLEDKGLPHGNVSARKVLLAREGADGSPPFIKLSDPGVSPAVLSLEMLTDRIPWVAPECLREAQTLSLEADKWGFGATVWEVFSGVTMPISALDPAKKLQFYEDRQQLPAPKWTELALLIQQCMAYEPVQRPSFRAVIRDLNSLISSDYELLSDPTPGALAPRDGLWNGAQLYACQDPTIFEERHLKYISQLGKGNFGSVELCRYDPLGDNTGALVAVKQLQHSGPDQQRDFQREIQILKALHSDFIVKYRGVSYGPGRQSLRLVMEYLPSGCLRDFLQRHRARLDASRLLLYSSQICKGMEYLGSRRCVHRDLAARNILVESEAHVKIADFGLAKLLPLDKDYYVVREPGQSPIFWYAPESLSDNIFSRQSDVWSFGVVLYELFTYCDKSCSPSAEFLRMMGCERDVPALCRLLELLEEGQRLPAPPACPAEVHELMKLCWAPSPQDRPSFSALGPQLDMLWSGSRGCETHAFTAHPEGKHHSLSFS

Structure (SMILES)	IC50 (IRAK4) [µM]	IC50 [1] [µM]	IC50 (JAK3 kinase) [µM]	Ratio of JAK3 IC50 to IRAK4 IC50 (JAK3 kinase)
CC(=O)N[C@H]1CC[C@H](NC(=O)c2cnn3c(Cl)c(-c4ccncc4)cc3c2NC(C)C)CC1 [Example 80, N-((1r,4r)-4-acetamidocyclohexyl)-7-chloro-4-(isopropylamino)-6-(pyridin-4-yl)pyrrolo[1,2-b]pyridazine-3-carboxamide]	0.002	0.72	~35	~17500
CC(=O)N[C@H]1CC[C@H](NC(=O)c2cnn3cc(-c4ccc(C#N)cc4)cc3c2NC(C)C)CC1 [Example 81, N-((1r,4r)-4-acetamidocyclohexyl)-6-(4-cyanophenyl)-4-(isopropylamino)pyrrolo[1,2-b]pyridazine-3-carboxamide]	0.012	> 20	> 50	>4167
CC(C)Nc1c(C(=O)N[C@H]2CC[C@H](C(=O)N3CCOCC3)CC2)cnn2cc(-c3ccncc3F)cc12 [Example 84, 6-(3-fluoropyridin-4-yl)-4-(isopropylamino)-N-((1r,4r)-4-(morpholine-4-carbonyl)cyclohexyl)pyrrolo[1,2-b]pyridazine-3-carboxamide]	0.0027	1.04	> 50	>18519
CC(C)Nc1c(C(=O)NC2CCN(S(C)(=O)=O)CC2)cnn2cc(-c3ccc(F)nc3)cc12 [Example 85, 6-(6-fluoropyridin-3-yl)-4-(isopropylamino)-N-(1-(methylsulfonyl)piperidin-4-yl)pyrrolo[1,2-b]pyridazine-3-carboxamide]	0.0025	0.87	~31	~12400
CNC(=O)[C@H]1CC[C@H](NC(=O)c2cnn3cc(-c4ccncc4F)cc3c2NC(C)C)CC1 [Example 87, 6-(3-fluoropyridin-4-yl)-4-(isopropylamino)-N-((1r,4r)-4-(methylcarbamoyl)cyclohexyl) pyrrolo[1,2-b]pyridazine-3-carboxamide]	0.0031	0.26	> 50	>16129
Cc1cc(F)ncc1-c1cc2c(NC(C)C)c(C(=O)N[C@H]3CC[C@H](C(N)=O)CC3)cnn2c1 [Example 88, N-((1r,4r)-4-carbamoylcyclohexyl)-6-(6-fluoro-4-methylpyridin-3-yl)-4-(isopropylamino)pyrrolo[1,2-b]pyridazine-3-carboxamide]	0.0076	> 10	> 50	>6579
CC(C)Nc1c(C(=O)N[C@H]2CC[C@H](C(N)=O)CC2)cnn2cc(-c3ccncc3F)cc12 [Example 89, N-((1r,4r)-4-carbamoylcyclohexyl)-6-(3-fluoropyridin-4-yl)-4-(isopropylamino) pyrrolo[1,2-b]pyridazine-3-carboxamide]	0.0038	1.36	> 50	>13158
CC(C)Nc1c(C(=O)N[C@H]2CC[C@H](c3nc[nH]n3)CC2)cnn2cc(-c3ccncc3)cc12 [Example 90, N-((1r,4r)-4-(1H-1,2,4-triazol-3-yl)cyclohexyl)-4-(isopropylamino)-6-(pyridin-4-yl)pyrrolo[1,2-b]pyridazine-3-carboxamide]	0.0037	0.63	10	2703
Cc1cc(F)ncc1-c1cc2c(NC(C)C)c(C(=O)N[C@H]3CC[C@H](c4nc[nH]n4)CC3)cnn2c1 [Example 91, N-((1r,4r)-4-(1H-1,2,4-triazol-3-yl)cyclohexyl)-6-(6-fluoro-4-methylpyridin-3-yl)-4-(isopropylamino)pyrrolo[1,2-b]pyridazine-3-carboxamide]	0.0052	1.46	> 50	>9615
CC(C)Nc1c(C(=O)N[C@H]2CC[C@H](c3nc[nH]n3)CC2)cnn2cc(-c3ccc(F)nc3)cc12 [Example 92, N-((1r,4r)-4-(1H-1,2,4-triazol-3-yl)cyclohexyl)-6-(6-fluoropyridin-3-yl)-4-(isopropylamino)pyrrolo[1,2-b]pyridazine-3-carboxamide]	0.01	6.97	> 50	>5000
CC(C)Nc1c(C(=O)N[C@H]2CC[C@H](c3nc[nH]n3)CC2)cnn2cc(-c3ccncc3F)cc12 [Example 93, N-((1r,4r)-4-(1H-1,2,4-triazol-3-yl)cyclohexyl)-6-(3-fluoropyridin-4-yl)-4-(isopropylamino)pyrrolo[1,2-b]pyridazine-3-carboxamide]	0.0023	1.04	> 50	>21739
CC(=O)N[C@H]1CC[C@H](NC(=O)c2cnn3cc(-c4ccncc4)nc3c2NC(C)C)CC1 [Example 108, N-((1r,4r)-4-acetamidocyclohexyl)-8-(isopropylamino)-2-(pyridin-4-yl)imidazo[1,2-b]pyridazine-7-carboxamide]	0.011	0.89	~49	~4455
CC(C)Nc1c(C(=O)NCCC(C)(C)O)cnn2cc(-c3ccncc3F)nc12 [Example 109, 2-(3-fluoropyridin-4-yl)-N-(3-hydroxy-3-methylbutyl)-8-(isopropylamino)imidazo[1,2-b]pyridazine-7-carboxamide]	0.012	> 20	> 50	>4167
CC(C)Nc1c(C(=O)NC2CCN(S(C)(=O)=O)CC2)cnn2cc(-c3ccncc3F)nc12 [Example 111, 2-(3-fluoropyridin-4-yl)-8-(isopropylamino)-N-(1-(methylsulfonyl)piperidin-4-yl)imidazo[1,2-b]pyridazine-7-carboxamide]	0.013	3.73	> 50	>3846
